In EP4745117A1, “NOVEL INDENONE DERIVATIVE AND USE THEREOF” (Amyloid Solution Inc., priority 2023, dated 2025):

Legend:
[1] = system: amyloid-beta oligomers in HEK293 cells transfected with the APP E693Δ mutant plasmid; experiment: Amyloid-beta oligomer change by dot blot (A11 antibody) in an amyloid-beta oligomer-overexpressing cell line; assay type: cell-based; conditions: compound 10 µM, 48 hours, dot blot of cell lysate, relative to control group (FIG. 1)
Source text: To observe the change in intracellular amyloid-beta oligomers, a plasmid with the APP E693Δ (Osaka mutation) mutant, which is associated with early-onset Alzheimer's disease and is known to induce intracellular amyloid-beta oligomer formation, was obtained from GenScript. This plasmid was transfected into HEK293 cells using a liposome-mediated method (Lipofectamine) to prepare a cell line that overexpresses intracellular amyloid-beta oligomers.
HEK293 cells transfected with the APP E693Δ mutant plasmid were incubated for 48 hours in a 37 °C, 5 % CO2 incubator, and then treated with the compounds prepared in 1.1, which were diluted to a concentration of 10 µM in the cell culture medium. The untransfected control group was treated with 0.1 % DMSO, the same as the compound-treated group.
The compound-treated cell lines were again incubated for 48 hours in a 37 °C, 5 % CO2 incubator and then used in the experiment.
After incubating the control and compound-treated cells from Example 2.2, a dot blot was performed using the cell lysate. A 3.5 µg sample was spotted onto a nitrocellulose membrane and air-dried, and then the membrane to which the sample was adhered was blocked with 5 % skim milk. After incubating with the amyloid oligomer antibody A11 to allow binding, the membrane was washed 4 times with TBST, and the secondary antibody was bound. The image signal was measured using a chemiluminescent substrate.
It was confirmed that the amount of amyloid-beta oligomers was reduced by each compound treatment compared to the control group.

[2] = target: T1, Aβ1-42 (Homo sapiens, UniProt P05067); experiment: Amyloid-beta disaggregation test by Thioflavin-T analysis; assay type: biochemical; conditions: for EC50: Aβ1-42 50 µM aggregated 24 hours, then compound 0 - 500 µM for 48 hours at 37 °C, concentration disaggregating 50 % of aggregates vs control, read-out: EC50 (µM) Aβ; for disaggregation effect for amyloid-beta protein aggregates: statement in words summarising the Thioflavin-T results
T1 construct: dissolving Aβ1-42 or Tau-RD3 (Tau repeat domain 3) monomers in DMSO
T1 sequence (P05067 672-713 limits assumed): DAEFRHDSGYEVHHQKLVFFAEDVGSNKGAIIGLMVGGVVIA
Summary of the method: (§1)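 Aβ1-42 (50 µM) or Tau-RD3 (35 µM) pre-aggregated 24 h at 37 °C, then incubated with compound (500 µM down to 0 µM, serial dilution) for 48 h at 37 °C. Read-out by Thioflavin-T (5 µM solution, glycine buffer pH 8.5) fluorescence, ex 450/em 485 nm. Values expressed relative to 72 h aggregated protein-only control (100%).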

[3] = target: Tau-RD3 (Tau repeat domain 3) (Homo sapiens, UniProt P10636); experiment: Tau disaggregation test by Thioflavin-T analysis; assay type: biochemical; conditions: for EC50: Tau-RD3 35 µM aggregated 24 hours, then compound 0 - 500 µM for 48 hours at 37 °C, concentration disaggregating 50 % of aggregates vs control, read-out: EC50 (µM) Tau; for disaggregation effect for tau protein aggregates: statement in words summarising the Thioflavin-T results
Tau-RD3 (Tau repeat domain 3), sequence (P10636 623-653 limits assumed): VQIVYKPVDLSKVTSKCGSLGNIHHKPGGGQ
Summary of the method: as §1

**Q.** Which “amyloid-beta oligomer reduction effect” value [1] does the source give for CN1CCN(c2ccc3c(c2)C(=O)C(c2ccccc2)=C3c2ccccc2)CC1 [Compound 13, 6-(4-methylpiperazin-1-yl)-2,3-diphenyl-1H-inden-1-one] here?
**A.** Its value is “reduction effect”.

**Q.** What about the EC50 [2] of the same compound?
**A.** Its EC50 is under 20 µM.

**Q.** And the “disaggregation effect for amyloid-beta protein aggregates” value [2]?
**A.** The value was “remarkably excellent disaggregation effect”.

**Q.** And the EC50 [3]?
**A.** Its EC50 is under 20 µM.

**Q.** What about the “disaggregation effect for tau protein aggregates” value [3] of the same compound?
**A.** The value was “remarkably excellent disaggregation effect”.

**Q.** Which “amyloid-beta oligomer reduction effect” value [1] does the source give for Cc1ncsc1C1=C(c2cnn(C3CCN(C)CC3)c2)C(=O)c2cc(OCCCc3ccccc3)ccc21 [Compound 30, 2-(1-(1-methylpiperidin-4-yl)-1H-pyrazol-4-yl)-3-(4-methylthiazol-5-yl)-6-(3-phenylpropoxy)-1H-inden-1-one] here?
**A.** The value was “reduction effect”.

**Q.** And the EC50 [2]?
**A.** Its EC50 is under 20 µM.

**Q.** What about the EC50 [3] of the same compound?
**A.** The EC50 was under 20 µM.

**Q.** Cc1ncsc1C1=C(c2cccnc2)C(=O)c2cc(NC3CC3)ccc21 [Compound 63, 6-(cyclopropylamino)-3-(4-methylthiazol-5-yl)-2-(pyridin-3-yl)-1H-inden-1-one] was tested. Which “amyloid-beta oligomer reduction effect” value [1] did it give?
**A.** The value was “reduction effect”.

**Q.** And the EC50 [2]?
**A.** Its EC50 is under 20 µM.

**Q.** What about the “disaggregation effect for amyloid-beta protein aggregates” value [2] of the same compound?
**A.** The value was “remarkably excellent disaggregation effect”.

**Q.** What about the EC50 [3] of the same compound?
**A.** Its EC50 is under 20 µM.

**Q.** And the “disaggregation effect for tau protein aggregates” value [3]?
**A.** The value was “remarkably excellent disaggregation effect”.

**Q.** Which results are given for Cc1ncsc1C1=C(c2cccnc2)C(=O)c2cc(N(C)CCCc3ccccc3)ccc21 [Compound 65, 6-(methyl(3-phenylpropyl)amino)-3-(4-methylthiazol-5-yl)-2-(pyridin-3-yl)-1H-inden-1-one]?
**A.** amyloid-beta oligomer reduction effect [1]: reduction effect; disaggregation effect for amyloid-beta protein aggregates [2]: remarkably excellent disaggregation effect; EC50 [3]: < 20 µM; disaggregation effect for tau protein aggregates [3]: remarkably excellent disaggregation effect

**Q.** With O=C1C(c2ccccc2)=C(c2ccccc2)c2ccc(N3CCN(CCO)CC3)cc21 [Compound 70, 6-(4-(2-hydroxyethyl)piperazin-1-yl)-2,3-diphenyl-1H-inden-1-one] as the compound, how does the “amyloid-beta oligomer reduction effect” value [1] read?
**A.** The value was “reduction effect”.

**Q.** What about the EC50 [2] of the same compound?
**A.** The EC50 was under 20 µM.

**Q.** What about the “disaggregation effect for amyloid-beta protein aggregates” value [2] of the same compound?
**A.** The value was “remarkably excellent disaggregation effect”.

**Q.** And the EC50 [3]?
**A.** Its EC50 is under 20 µM.

**Q.** What about the “disaggregation effect for tau protein aggregates” value [3] of the same compound?
**A.** Its value is “remarkably excellent disaggregation effect”.

**Q.** Which “amyloid-beta oligomer reduction effect” value [1] does the source give for Cc1cccc(C)c1C1=C(c2ccccc2)C(=O)c2cc(N3CCN(C)CC3)ccc21 [Compound 72, 3-(2,6-dimethylphenyl)-6-(4-methylpiperazin-1-yl)-2-phenyl-1H-inden-1-one] here?
**A.** Its value is “reduction effect”.

**Q.** And the EC50 [2]?
**A.** Its EC50 is under 20 µM.

**Q.** And the “disaggregation effect for amyloid-beta protein aggregates” value [2]?
**A.** The value was “remarkably excellent disaggregation effect”.

**Q.** And the EC50 [3]?
**A.** The EC50 was under 20 µM.

**Q.** And the “disaggregation effect for tau protein aggregates” value [3]?
**A.** Its value is “remarkably excellent disaggregation effect”.

**Q.** How did the “amyloid-beta oligomer reduction effect” value [1] turn out when Cc1ncsc1C1=C(c2ccc(N3CCN(C)CC3)cc2)C(=O)c2cc(N3CCN(CCO)CC3)ccc21 [Compound 74, 6-(4-(2-hydroxyethyl)piperazin-1-yl)-2-(4-(4-methylpiperazin-1-yl)phenyl)-3-(4-methylthiazol-5-yl)-1H-inden-1-one] was run?
**A.** Its value is “reduction effect”.

**Q.** What about the EC50 [2] of the same compound?
**A.** Its EC50 is under 20 µM.

**Q.** What about the EC50 [3] of the same compound?
**A.** Its EC50 is under 20 µM.

**Q.** Which “amyloid-beta oligomer reduction effect” value [1] does the source give for Cc1ncsc1C1=C(c2ccc(N3CCN(C)CC3)cc2)C(=O)c2cc(Cl)ccc21 [Compound 74-7, 6-chloro-2-(4-(4-methylpiperazin-1-yl)phenyl)-3-(4-methylthiazol-5-yl)-1H-inden-1-one] here?
**A.** The value was “reduction effect”.

**Q.** And the EC50 [2]?
**A.** Its EC50 is under 20 µM.

**Q.** What about the “disaggregation effect for amyloid-beta protein aggregates” value [2] of the same compound?
**A.** Its value is “remarkably excellent disaggregation effect”.

**Q.** What about the EC50 [3] of the same compound?
**A.** The EC50 was under 20 µM.

**Q.** And the “disaggregation effect for tau protein aggregates” value [3]?
**A.** The value was “remarkably excellent disaggregation effect”.

**Q.** Cc1ncsc1C1=C(c2ccc(N3CCN(C)CC3)cc2)C(=O)c2cc(N3CCN(C)CC3)ccc21 [Compound 75, 6-(4-methylpiperazin-1-yl)-2-(4-(4-methylpiperazin-1-yl)phenyl)-3-(4-methylthiazol-5-yl)-1H-inden-1-one] was tested. Which “amyloid-beta oligomer reduction effect” value [1] did it give?
**A.** The value was “reduction effect”.

**Q.** What about the EC50 [2] of the same compound?
**A.** Its EC50 is under 20 µM.

**Q.** And the EC50 [3]?
**A.** The EC50 was under 20 µM.

**Q.** Which results are given for CN1CCN(c2ccc(C3=C(c4ccccc4)c4ccccc4C3=O)cc2)CC1 [Compound 90, 2-(4-(4-methylpiperazin-1-yl)phenyl)-3-phenyl-1H-inden-1-one]?
**A.** amyloid-beta oligomer reduction effect [1]: reduction effect; EC50 [2]: < 20 µM; disaggregation effect for amyloid-beta protein aggregates [2]: remarkably excellent disaggregation effect; EC50 [3]: < 20 µM; disaggregation effect for tau protein aggregates [3]: remarkably excellent disaggregation effect

**Q.** CN1CCN(c2ccc(C3=C(c4ccccc4)C(=O)c4ccccc43)cc2)CC1 [Compound 94, 3-(4-(4-methylpiperazin-1-yl)phenyl)-2-phenyl-1H-inden-1-one] was tested. Which EC50 [2] did it give?
**A.** Its EC50 is under 20 µM.

**Q.** What about the EC50 [3] of the same compound?
**A.** Its EC50 is 20 to 100 µM.

**Q.** How did the EC50 [2] turn out when CN1CCN(c2cccc(C3=C(c4ccccc4)C(=O)c4ccccc43)c2)CC1 [Compound 95, 3-(3-(4-methylpiperazin-1-yl)phenyl)-2-phenyl-1H-inden-1-one] was run?
**A.** The EC50 was 20 to 100 µM.

**Q.** And the EC50 [3]?
**A.** Its EC50 is over 250 µM.

**Q.** Which results are given for CC(C)(C)c1cc(C2=C(c3ccccc3)C(=O)c3ccccc32)cc(C(C)(C)C)c1 [Compound 96, 3-(3,5-di-tert-butylphenyl)-2-phenyl-1H-inden-1-one]?
**A.** EC50 [2]: > 250 µM; EC50 [3]: > 250 µM

**Q.** Which EC50 [2] does the source give for COc1cc(OC)c2c(c1)C(=O)C(c1ccccc1)=C2c1ccccc1 [Compound 97, 4,6-dimethoxy-2,3-diphenyl-1H-inden-1-one] here?
**A.** The EC50 was under 20 µM.

**Q.** What about the EC50 [3] of the same compound?
**A.** Its EC50 is over 250 µM.

**Q.** For O=C1C(c2ccccc2)=C(c2ccccc2)c2ncccc21 [Compound 98, 6,7-diphenyl-5H-cyclopenta[b]pyridin-5-one], which EC50 [2] is on record?
**A.** Its EC50 is over 250 µM.

**Q.** And the EC50 [3]?
**A.** The EC50 was over 250 µM.

**Q.** With CNC(=O)c1ccccc1C1=C(c2ccccc2C)c2ccccc2C1=O [Compound 99, N-methyl-2-(1-oxo-3-(o-tolyl)-1H-inden-2-yl)benzamide] as the compound, how does the EC50 [2] read?
**A.** The EC50 was over 250 µM.

**Q.** And the EC50 [3]?
**A.** Its EC50 is over 250 µM.

**Q.** With CCOC(=O)c1ccccc1C1=C(c2ccccc2C)c2ccccc2C1=O [Compound 99-7, ethyl 2-(1-oxo-3-(o-tolyl)-1H-inden-2-yl)benzoate] as the compound, how does the EC50 [2] read?
**A.** Its EC50 is 100 to 250 µM.

**Q.** And the EC50 [3]?
**A.** The EC50 was over 250 µM.

**Q.** Which results are given for Cc1ccccc1C1=C(c2ccccc2C(=O)O)C(=O)c2ccccc21 [Compound 99-8, 2-(1-oxo-3-(o-tolyl)-1H-inden-2-yl)benzoic acid]?
**A.** EC50 [2]: > 250 µM; EC50 [3]: 20 to 100 µM
